Calls of active or inactive are those of the source.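 Rule for the calls: active = maximal inhibition of USP17 at or above 30% in the confirmation dose-response, a value not among the printed readouts; inactive = the rest.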
Target: Ubiquitin carboxyl-terminal hydrolase 17-like protein 5 (Homo sapiens) (UniProt A8MUK1)
Assay: ubiquitin-specific protease 17 DUB inhibitors, concentration-effect assay, cell-free, verification of initial screening actives (AID 1645864)
Conditions: purified USP17, ubiquitin-rhodamine cleavage fluorescence, 3 h

Sequence of Ubiquitin carboxyl-terminal hydrolase 17-like protein 5 (Homo sapiens) (A8MUK1 whole entry, looked up): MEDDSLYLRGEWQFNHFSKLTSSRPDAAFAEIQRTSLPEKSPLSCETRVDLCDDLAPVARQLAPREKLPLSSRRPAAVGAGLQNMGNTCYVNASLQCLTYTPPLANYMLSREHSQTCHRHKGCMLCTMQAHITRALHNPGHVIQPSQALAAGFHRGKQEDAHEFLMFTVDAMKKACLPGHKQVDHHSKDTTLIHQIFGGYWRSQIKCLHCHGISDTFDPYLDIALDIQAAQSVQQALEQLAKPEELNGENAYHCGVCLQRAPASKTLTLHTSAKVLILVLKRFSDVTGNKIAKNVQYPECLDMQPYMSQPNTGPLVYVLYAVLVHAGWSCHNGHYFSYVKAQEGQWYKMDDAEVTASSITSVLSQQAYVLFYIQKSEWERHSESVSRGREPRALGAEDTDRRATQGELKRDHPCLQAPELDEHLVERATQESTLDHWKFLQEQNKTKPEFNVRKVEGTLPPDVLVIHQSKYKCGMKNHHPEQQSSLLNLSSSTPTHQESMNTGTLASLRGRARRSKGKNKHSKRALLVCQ

Compound	IC50
Cc1cc(-c2ccnc3c(C#N)cnn23)c(C)s1	28.6 µM
COc1ccc(CCNC(=O)c2cc(C3CC3)nc3c2cnn3C(C)C)cc1	> 50 µM (inactive)
Cc1cc(C(=O)N2CCN(C3CCN(Cc4ccc(Cl)o4)CC3)C(=O)C2)c(C)o1	> 50 µM (inactive)
Cc1nn(Cc2ccccc2)c(C)c1C(=O)NC1CCCc2ccccc21 (stereo not drawn)	> 50 µM (inactive)
CCn1cc2c(n1)c(=O)n(Cc1ccccc1)c(=O)n2CC(=O)Nc1ccc(OC)cc1	2.91 µM
COc1ccccc1NC(=O)Cn1cc(C(=O)c2ccc(C)cc2)c(=O)c2cc(Cl)ccc21	16.6 µM
O=C(c1cccnc1)N1CCC2(CC1)CC1(CO2)Nc2ccccc2-n2cccc21 (stereo not drawn)	21.4 µM
COc1ccccc1NC(=O)Nc1ccc(NC(=O)c2ccccc2O)cc1	47.5 µM
Cc1cc(C(=O)Nc2ccc3nc(N4CCN(c5ncccn5)CC4)cc(C)c3c2)ccc1[N+](=O)[O-]	1.68 µM
Cc1ccc(O)c(-c2cc(C(=O)Nc3ccccc3Cl)[nH]n2)c1	8.32 µM
CCCC(=O)Nc1nc2ccc(CCC(=O)NCc3ccc(F)cc3)cc2s1	25 µM
O=C(OC1CSc2nc3ccccc3n2C1)c1ccc([N+](=O)[O-])o1 (stereo not drawn)	30.5 µM
COc1cccc(NC(=O)c2nnn(-c3ccccc3)n2)c1	> 50 µM (inactive)
CNC(=O)c1c2n(c3ncccc13)CCN(S(=O)(=O)c1ccc(-c3ccccc3)cc1)C2	15 µM
N#Cc1cccc(S(=O)(=O)N2CCc3nc4ccccc4n3CC2)c1	19.5 µM
O=C(Nc1ccccc1-c1nc2ccccc2[nH]1)c1sc2ccccc2c1Cl	1.8 µM
CCCCCC(O)c1c(O)cc2c(c1O)C(=O)c1c(O)cc(O)cc1C2=O (stereo not drawn)	> 50 µM (inactive)
O=c1[nH]c(-c2ccccn2)nc2c1CCN(Cc1cnn(-c3ccccc3)c1)C2	> 50 µM (inactive)
COc1ccccc1NC(=O)c1cc2c(C)nn(Cc3ccccc3)c2s1	29.9 µM
COc1cccc(-n2ccc(=O)c(-c3nc(-c4ccccc4Cl)no3)n2)c1	> 50 µM (inactive)
COc1ccc(OC)c(-c2cc(C(=O)Nc3c(C)nn(Cc4ccccc4)c3C)no2)c1	> 50 µM (inactive)
COc1ccc(NC(=O)c2cc(-c3cccnc3)n[nH]2)cc1Cl	11.1 µM
CNC(=O)c1cc2c(=O)n3cccc(C)c3nc2n1Cc1ccccc1	2.36 µM
Cn1c(=O)c2cc(C(=O)Nc3ccc(F)cc3)cnc2n(C)c1=O	22.9 µM

Compound	IC50
O=C(CC1Oc2ccccc2NC1=O)Nc1ccccc1Br (stereo not drawn)	33.4 µM
CC1CC[C@]2(NC1)O[C@H]1C[C@H]3[C@@H]4CC[C@H]5C[C@@H](O[C@@H]6O[C@H](CO)[C@H](O[C@@H]7O[C@H](CO)[C@@H](O)[C@H](O[C@@H]8OC[C@@H](O)[C@H](O)[C@H]8O)[C@H]7O[C@@H]7O[C@H](CO)[C@@H](O)[C@H](O)[C@H]7O)[C@H](O)[C@H]6O)CC[C@]5(C)[C@H]4CC[C@]3(C)[C@H]1[C@@H]2C (stereo partly drawn)	40 µM
Cc1nn(-c2nc3ccccc3[nH]2)c2c1C(c1cccs1)CC(=O)N2 (stereo not drawn)	> 50 µM (inactive)
CN(Cc1ccccc1)S(=O)(=O)c1ccc2[nH]cc(C(=O)NCc3cccs3)c(=O)c2c1	0.749 µM
Cc1ccc2[nH]c3c(=O)n(CC4CCCO4)cnc3c2c1 (stereo not drawn)	21.5 µM
N#Cc1cccc(NC(=O)Nc2cccn(Cc3ccccc3F)c2=O)c1	21 µM
Cc1ccc(Cl)cc1NC(=O)c1cc(-c2ccccn2)n[nH]1	7.13 µM
COC1=CC(=O)c2c(O)c3c(c(C)c2C1=O)C[C@@]1(O)[C@H](O[C@H]2CC[C@H](O[C@H]4C[C@@](C)(O)[C@H](OC(=O)c5c(C)ccc(C)c5O)[C@H](C)O4)[C@@H](C)O2)C(=O)C(C(C)=O)=C(O)[C@@]1(O)C3=O	1.34 µM
COC(=O)c1ccc2c(=O)n(CCCCCC(=O)NCc3cccc(Cl)c3)c(=O)[nH]c2c1	2.36 µM
CCOC(=O)c1ccc(NC(=O)c2cnc(N3CCOCC3)nc2)cc1	> 5 µM (inactive)
Cc1ccc(-c2cn(CC(=O)N3CCN(c4ccccn4)CC3)c(=O)o2)cc1	13 µM
CCC(=O)Nc1ccccc1-c1nc2ccccc2n(CC(=O)Nc2cc(OC)ccc2OC)c1=O	18.6 µM
CC(C)(C)c1ccc(C(=O)Nc2ccc(Oc3cccnc3)nc2)cc1	> 50 µM (inactive)
CN(C)c1cc(-n2cnc(C(=O)NCc3ccccc3Cl)c2)ncn1	41.3 µM
Cc1cc(C(F)(F)F)n2nc(C3CCN(C(=O)c4cnn(C)c4C)C3)cc2n1 (stereo not drawn)	30.2 µM
Cc1cccc(-c2nc3n(CC(=O)Nc4ccc(Cl)cc4)c(C)cc(=O)n3n2)c1	0.335 µM
Cn1cc(-c2noc(Cc3cccc(C(F)(F)F)c3)n2)ccc1=O	> 50 µM (inactive)
CC(C)c1nc2sc3c(NCc4ccco4)ncnc3c2c2c1CCC2	> 50 µM (inactive)
COc1cc(NC(=O)c2ccc3c(c2)OCO3)ccc1-c1cc2ccccc2oc1=O	0.678 µM
O=C(Nc1ccc2c(c1)OCCO2)c1cccc2nc3ccccc3nc12	2.51 µM
Fc1cccc(-n2cc(-c3noc(-c4ccccn4)n3)nn2)c1	30.1 µM
O=C(NCc1ccco1)c1ccc2c(c1)N(Cc1cccc(F)c1)C(=O)c1ccccc1S2	> 50 µM (inactive)
COCC(=O)Nc1cc(F)c2nc(N3CCOCC3)ccc2c1	33.8 µM
O=C(COc1nsnc1N1CCOCC1)Nc1ccccc1F	> 50 µM (inactive)

Source: PubChem BioAssay AID1645864 (Buhrlage Lab, Dana-Farber Cancer Institute and Novartis …, 2021)
